Test results from US8299214B2 (priority 2006, dated 2012).
pIC50: −log10 of the molar value. Read-outs that look alike come from different tables or passages of the source. Residues, ends and D or L forms follow the SMILES beside them. No end group written: not given here. *: point of attachment. Stearoyl = CCCCCCCCCCCCCCCCCC(=O)*

Tests used:
[1] = system: hemagglutinin (immobilized H3N2); experiment: Biacore binding of synthetic peptides to H3N2 immobilized on Sensor Chip CM5; parameters: species or system influenza virus type A A/Wuhan/359/95 (H3N2); conditions: for order of binding strength to hemagglutinin: Biacore; for relative value of resonance (amount of binding) with A-1 taken as 1: peptide concentration 200 μM
[2] = system: influenza virus A/Puerto Rico/8/34 strain (H1N1); conditions: for pIC50: influenza virus A/Puerto Rico/8/34 strain; for inhibition of H1N1 influenza virus infection (in words) / IC50: MDCK cells, plaque assay; for IC50: read-out: IC50(μM) H1, H1N1
[3] = system: influenza virus A/Aichi/2/68 strain (H3N2); conditions: for pIC50: influenza virus A/Aichi/2/68 strain; for inhibition of H3N2 influenza virus infection (in words) / IC50: MDCK cells, plaque assay; for IC50: read-out: IC50(μM) H3, H3N2
[4] = target: binding of hemagglutinin (H3) to GM3; experiment: ELISA inhibition of GM3-hemagglutinin interaction using GM3 cast membrane; parameters: species or system influenza virus
Procedure: Inhibition of the interaction between GM3 and hemagglutinin (HA) was evaluated by ELISA using the GM3 cast membrane (Kazuhiro Nagata and Hiroshi Handa, “Seibutsu Busshitsu Sogosayo no Real-time Kaiseki Jikkenho—BIACORE wo Chushin Ni (Real-time Analysis Experimental Procedures on Biological Substance Interaction—Focusing on BIOCORE), Springer-Verlag Inc., Tokyo, 1998)”). […] In addition, it has been reported from an evaluation by NMR that the binding constant between hemagglutinin and free sialyl lactose is in the order of mM (e.g. α (2, 3)-sialyllactose K0=3.2 mM). Therefore, the results presented in this Example were largely consistent with the inhibition constant of the peptides reported by Inoue. Moreover, the results presented in this Example are in the same order of magnitude as, or one order smaller than, the inhibition constant of A-1 or the binding constant obtained with sialyl lactose.

[5] = system: hemagglutinin (HA), ether extract of type A subtype H3 A/Wuhan/359/95 (H3N2); experiment: Phage ELISA, binding of peptide-presenting phages to immobilized hemagglutinin (H3N2); parameters: species or system influenza virus type A A/Wuhan/359/95 (H3N2)
[6] = target: hemagglutinin (HA), ether extract of type A subtype H1 A/PR/8/34 (H1N1) (Influenza A virus, UniProt P03452)
Chain of hemagglutinin (HA), ether extract of type A subtype H1 A/PR/8/34 (H1N1) (P03452 18-565): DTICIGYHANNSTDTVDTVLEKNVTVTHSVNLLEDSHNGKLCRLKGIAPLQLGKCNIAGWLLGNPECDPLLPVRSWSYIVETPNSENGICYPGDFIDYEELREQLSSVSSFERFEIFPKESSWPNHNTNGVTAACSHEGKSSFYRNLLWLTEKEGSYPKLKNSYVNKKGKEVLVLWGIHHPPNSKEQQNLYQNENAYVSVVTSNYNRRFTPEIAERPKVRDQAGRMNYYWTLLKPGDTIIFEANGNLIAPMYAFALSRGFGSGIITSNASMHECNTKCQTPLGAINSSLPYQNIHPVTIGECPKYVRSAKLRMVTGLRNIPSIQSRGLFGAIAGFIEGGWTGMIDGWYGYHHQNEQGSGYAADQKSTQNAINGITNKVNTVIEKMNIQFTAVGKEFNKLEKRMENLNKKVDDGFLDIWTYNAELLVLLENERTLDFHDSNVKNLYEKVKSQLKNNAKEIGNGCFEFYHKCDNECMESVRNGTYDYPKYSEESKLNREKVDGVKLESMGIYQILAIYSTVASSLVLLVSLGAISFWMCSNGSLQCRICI

Molecule: AEGDDPAKAAFDSLQ-NH2 [pVIII, reference compound]
- order of binding strength to hemagglutinin [1]: s-2>e-1>A-1>pVIII

Molecule: CCCCCCCCCCCCCCCCCC(=O)N[C@H](C(=O)N[C@@H](CCSC)C(=O)N[C@H](C(=O)N[C@@H](CCCNC(=N)N)C(=O)N1CCC[C@H]1C(=O)N[C@@H](CC(C)C)C(=O)N[C@@H](CCCNC(=N)N)C(=O)N[C@@H](C)C(N)=O)[C@@H](C)O)C(C)C [C18-s2(r1-8), C18-VMTRPLRA] (Stearoyl-VMTRPLRA-NH2)
- pIC50 [2]: 4.03
- pIC50 [3]: 3.65

Molecule: CCCCCCCCCCCCCCCCCC(=O)N[C@@H](C)C(=O)N[C@@H](CCCNC(=N)N)C(=O)N[C@@H](CC(C)C)C(=O)N[C@@H](CO)C(=O)N1CCC[C@H]1C(=O)N[C@H](C(=O)N[C@@H](CCSC)C(=O)N[C@H](C(=O)N[C@@H](Cc1c[nH]cn1)C(=O)N1CCC[C@H]1C(=O)N[C@@H](CC(N)=O)C(=O)NCC(=O)N[C@@H](C)C(=O)N[C@@H](CCC(N)=O)C(=O)N1CCC[C@H]1C(N)=O)C(C)C)[C@@H](C)O [C18-A1, C18-ARLSPTMVHPNGAQP, reference compound] (Stearoyl-ARLSPTMVHPNGAQP-NH2)
- pIC50 [2]: 3.71
- pIC50 [3]: 3.44

Molecule: ARLSPTMVHPNGAQP [A-1, ARLSPTMVHPNGAQP-NH2, reference compound]
- order of binding strength to hemagglutinin [1]: s-2>e-1>A-1>pVIII
- pIC50 [4]: 2.72

Molecule: ARLPPTMVRPNGPQP-NH2 [e-1]
- order of binding strength to hemagglutinin [1]: s-2>e-1>A-1>pVIII
- relative value of resonance (amount of binding) with A-1 taken as 1 [1]: 1.2 fold

Molecule: CCCCCCCCCCCCCCCCCC(=O)N[C@@H](C)C(=O)N[C@@H](CCCNC(=N)N)C(=O)N[C@@H](CC(C)C)C(=O)N1CCC[C@H]1C(=O)N[C@@H](CCCNC(=N)N)C(=O)N[C@H](C(=O)N[C@@H](CCSC)C(=O)N[C@H](C(N)=O)C(C)C)[C@@H](C)O [C18-s2(1-8), C18-ARLPRTMV] (Stearoyl-ARLPRTMV-NH2)
- inhibition of H1N1 influenza virus infection (in words) [2]: more strongly than C18-S2 peptide
- IC50 ([2]; Table 4): 2.4 µM
- inhibition of H3N2 influenza virus infection (in words) [3]: as strongly as, or more strongly than, C18-S2 peptide
- IC50 ([3]; Table 4): 1.4 µM

Molecule: CCCCCCCCCCCCCCCCCC(=O)N[C@@H](C)C(=O)N[C@@H](CCCNC(=N)N)C(=O)N[C@@H](CC(C)C)C(N)=O [C18-s2(1-3), C18-ARL]
- inhibition of H1N1 influenza virus infection (in words) [2]: unable to inhibit infection
- pIC50 [2]: < 4.00
- inhibition of H3N2 influenza virus infection (in words) [3]: unable to inhibit infection
- pIC50 [3]: < 4.00

Molecule: CCCCCCCCCCCCCCCCCC(=O)N[C@@H](C)C(=O)N[C@@H](CCCNC(=N)N)C(=O)N[C@@H](CC(C)C)C(=O)N1CCC[C@H]1C(N)=O [C18-s2(1-4), C18-ARLP] (Stearoyl-ARLP-NH2)
- inhibition of H1N1 influenza virus infection (in words) [2]: more strongly than C18-S2 peptide
- pIC50 [2]: 6.05
- inhibition of H3N2 influenza virus infection (in words) [3]: as strongly as, or more strongly than, C18-S2 peptide
- pIC50 [3]: 4.68

Molecule: CCCCCCCCCCCCCCCCCC(=O)N[C@@H](C)C(=O)N[C@@H](CCCNC(=N)N)C(=O)N[C@@H](CC(C)C)C(=O)N1CCC[C@H]1C(=O)N[C@@H](CCCNC(=N)N)C(=O)N[C@H](C(N)=O)[C@@H](C)O [C18-s2(1-6), C18-ARLPRT] (Stearoyl-ARLPRT-NH2)
- inhibition of H1N1 influenza virus infection (in words) [2]: more strongly than C18-S2 peptide
- IC50 ([2]; Table 4): 3.5 µM
- inhibition of H3N2 influenza virus infection (in words) [3]: as strongly as, or more strongly than, C18-S2 peptide
- IC50 ([3]; Table 4): 5 µM

Molecule: ARLPRTMVHPKPAQP-NH2 [s-2]
- order of binding strength to hemagglutinin [1]: s-2>e-1>A-1>pVIII
- relative value of resonance (amount of binding) with A-1 taken as 1 [1]: 2.1 fold
- binding activity to hemagglutinin relative to A-1 (A-1 taken as 1) [5]: about 3 fold
- binding activity to hemagglutinin relative to A-1 (A-1 taken as 1) [6]: about 3 fold

Molecule: CCCCCCCCCCCCCCCCCC(=O)N[C@@H](CCCNC(=N)N)C(=O)N[C@@H](CC(C)C)C(=O)N1CCC[C@H]1C(=O)N[C@@H](CCCNC(=N)N)C(=O)N[C@H](C(=O)N[C@@H](CCSC)C(=O)N[C@H](C(N)=O)C(C)C)[C@@H](C)O [C18-s2(2-8), C18-RLPRTMV] (Stearoyl-RLPRTMV-NH2)
- inhibition of H1N1 influenza virus infection (in words) [2]: as strongly as, or more strongly than, C18-S2 peptide
- IC50 ([2]; Table 4): 9.2 µM
- IC50 ([3]; Table 4): > 100 µM

Molecule: CCCCCCCCCCCCCCCCCC(=O)N[C@@H](CCCNC(=N)N)C(=O)N1CCC[C@H]1C(=O)N[C@@H](CC(C)C)C(=O)N[C@@H](CCCNC(=N)N)C(=O)N[C@@H](C)C(N)=O [C18-s2(r1-5), C18-RPLRA] (Stearoyl-RPLRA-NH2)
- inhibition of H1N1 influenza virus infection (in words) [2]: more strongly than C18-s2 (r1-8)
- pIC50 [2]: 6.26
- inhibition of H3N2 influenza virus infection (in words) [3]: more strongly than C18-s2 (r1-8)
- pIC50 [3]: 6.03

Molecule: CCCCCCCCCCCCCCCCCC(=O)N[C@H](C(=O)N[C@@H](Cc1c[nH]cn1)C(=O)N1CCC[C@H]1C(=O)N[C@@H](CCCCN)C(=O)N1CCC[C@H]1C(=O)N[C@@H](C)C(=O)N[C@@H](CCC(N)=O)C(=O)N1CCC[C@H]1C(N)=O)C(C)C [C18-s2(8-15), C18-VHPKPAQP] (Stearoyl-VHPKPAQP-NH2)
- pIC50 [2]: 4.23
- pIC50 [3]: 4.98

Molecule: CCCCCCCCCCCCCCCCCC(=O)N[C@@H](C)C(=O)N[C@@H](CCCNC(=N)N)C(N)=O [C18-s2(1-2), C18-AR] (Stearoyl-Ala-Arg-NH2)
- inhibition of H1N1 influenza virus infection (in words) [2]: unable to inhibit infection
- IC50 ([2]; Table 4): > 100 µM
- inhibition of H3N2 influenza virus infection (in words) [3]: unable to inhibit infection
- IC50 ([3]; Table 4): > 100 µM

Molecule: CCCCCCCCCCCCCCCCCC(=O)N[C@@H](CCCNC(=N)N)C(=O)N[C@H](C(=O)N[C@@H](CCSC)C(=O)N[C@H](C(=O)N[C@@H](Cc1c[nH]cn1)C(=O)N1CCC[C@H]1C(=O)N[C@@H](CCCCN)C(N)=O)C(C)C)[C@@H](C)O [C18-s2(5-11), C18-RTMVHPK] (Stearoyl-RTMVHPK-NH2)
- pIC50 [2]: 4.96
- pIC50 [3]: < 4.00

Molecule: CCCCCCCCCCCCCCCCCC(=O)N1CCC[C@H]1C(=O)N[C@@H](CCCNC(=N)N)C(=O)N[C@H](C(=O)N[C@@H](CCSC)C(=O)N[C@H](C(N)=O)C(C)C)[C@@H](C)O [C18-s2(4-8), C18-PRTMV] (Stearoyl-PRTMV-NH2)
- pIC50 [2]: < 4.00

Molecule: CCCCCCCCCCCCCCCCCC(=O)N[C@@H](C)C(=O)N[C@@H](CCCNC(=N)N)C(=O)N[C@@H](CC(C)C)C(=O)N[C@@H](C)C(N)=O [C18-s2(1-4)P4A, C18-ARLA] (Stearoyl-ARLA-NH2)
- pIC50 [2]: < 4.00
- pIC50 [3]: < 4.00

Molecule: CCCCCCCCCCCCCCCCCC(=O)N[C@@H](CC(C)C)C(=O)N1CCC[C@H]1C(=O)N[C@@H](CCCNC(=N)N)C(=O)N[C@H](C(=O)N[C@@H](CCSC)C(=O)N[C@H](C(N)=O)C(C)C)[C@@H](C)O [C18-s2(3-8), C18-LPRTMV] (Stearoyl-LPRTMV-NH2)
- pIC50 [2]: < 4.00

Molecule: CCCCCCCCCCCCCCCCCC(=O)N[C@@H](C)C(=O)N[C@@H](CCCNC(=N)N)C(=O)N[C@@H](CC(C)C)C(=O)N1CCC[C@H]1C(=O)N[C@@H](CCCNC(=N)N)C(N)=O [C18-s2(1-5), C18-ARLPR] (Stearoyl-ARLPR-NH2)
- inhibition of H1N1 influenza virus infection (in words) [2]: more strongly than C18-S2 peptide
- IC50 ([2]; Table 4): 3.1 µM
- IC50 ([2]; Table 5): 0.35 µM
- inhibition of H3N2 influenza virus infection (in words) [3]: as strongly as, or more strongly than, C18-S2 peptide
- IC50 ([3]; Table 4): 3 µM
- IC50 ([3]; Table 5): 1.55 µM

Molecule: CCCCCCCCCCCCCCCCCC(=O)N1CCC[C@H]1C(=O)N[C@@H](CC(C)C)C(=O)N[C@@H](CCCNC(=N)N)C(=O)N[C@@H](C)C(N)=O [C18-s2(r1-4), C18-PLRA] (Stearoyl-PLRA-NH2)
- inhibition of H1N1 influenza virus infection (in words) [2]: more strongly than C18-s2 (r1-8)
- pIC50 [2]: 6.39
- inhibition of H3N2 influenza virus infection (in words) [3]: more strongly than C18-s2 (r1-8)
- pIC50 [3]: 4.85

Molecule: CCCCCCCCCCCCCCCCCC(=O)N[C@@H](C)C(=O)N[C@@H](CCCNC(=N)N)C(=O)N[C@@H](CC(C)C)C(=O)N1CCC[C@H]1C(=O)N[C@@H](CCCNC(=N)N)C(=O)N[C@H](C(=O)N[C@@H](CCSC)C(=O)N[C@H](C(=O)N[C@@H](Cc1c[nH]cn1)C(=O)N1CCC[C@H]1C(=O)N[C@@H](CCCCN)C(=O)N1CCC[C@H]1C(=O)N[C@@H](C)C(=O)N[C@@H](CCC(N)=O)C(=O)N1CCC[C@H]1C(N)=O)C(C)C)[C@@H](C)O [C18-s2, C18-ARLPRTMVHPKPAQP] (Stearoyl-ARLPRTMVHPKPAQP-NH2)
- pIC50 [2]: 5.00
- pIC50 [3]: 5.09

Molecule: CCCCCCCCCCCCCCCCCC(=O)N[C@@H](C)C(=O)N[C@@H](CCCNC(=N)N)C(=O)N[C@@H](CC(C)C)C(=O)N1CCC[C@H]1C(=O)N[C@@H](CCCNC(=N)N)C(=O)N[C@H](C(=O)N[C@@H](CCSC)C(N)=O)[C@@H](C)O [C18-s2(1-7), C18-ARLPRTM] (Stearoyl-ARLPRTM-NH2)
- inhibition of H1N1 influenza virus infection (in words) [2]: more strongly than C18-S2 peptide
- IC50 ([2]; Table 4): 7.1 µM
- inhibition of H3N2 influenza virus infection (in words) [3]: as strongly as, or more strongly than, C18-S2 peptide
- IC50 ([3]; Table 4): 9.1 µM
